Earlier results as cited in US20260144771A1, “Use of Triheptanoin Oil for Primary-Specific Pyruvate Dehydrogenase Complex (PDC) Deficiency” (University of Pittsburgh - Of the Commonwealth System of …, priority 2022, published 2026).
Blank lines part the entries; values can stand above or below the molecule they belong to.

Legend:
[1] = subjects with other mitochondrial disorders such as MELAS
[2] = human, in vivo
[3] = molecular target: PDC (Homo sapiens, UniProt P10515); conditions: read-out: Ki for end-product inhibition of PDC
[4] = subjects with FAO disorders
[5] = a case of pyruvate carboxylase deficiency
[6] = system: PDC and 2-oxoglutarate dehydrogenase activities; conditions: chronic epilepsy mouse model

Structure (SMILES): O=C(O)C(Cl)Cl [DCA, dichloroacetate]
neuropathy [1]: associated with toxic neuropathy

Structure (SMILES): Cc1ncc(C[n+]2csc(CCO)c2C)c(N)n1 [Thiamine, thiamine]
adverse side-effects [2]: has not been reported to have adverse side-effects

Ki [3]: 0.005 to 0.01 mM
Structure (SMILES): CC(=O)SCCNC(=O)CCNC(=O)[C@H](O)C(C)(C)COP(=O)(O)OP(=O)(O)OC[C@H]1O[C@@H](n2cnc3c(N)ncnc32)[C@H](O)[C@@H]1OP(=O)(O)O [acetyl-CoA]

Ki [3]: 3 to 4 mM
Structure (SMILES): CCC(=O)SCCNC(=O)CCNC(=O)[C@H](O)C(C)(C)COP(=O)(O)OP(=O)(O)OC[C@H]1O[C@@H](n2cnc3c(N)ncnc32)[C@H](O)[C@@H]1OP(=O)(O)O [propionyl-CoA]

Structure (SMILES): CCCCCCC(=O)OCC(COC(=O)CCCCCC)OC(=O)CCCCCC [triheptanoin]
biochemical and physical outcomes before and after treatment [4]: significant improvement in cardiomyopathy and decreased frequency and severity of rhabdomyolysis
biochemical outcomes [5]: rapid and significant improvement of biochemical outcomes
most commonly reported side effect: GI distress, share of cases: ≥ 10 % of cases
effect on PDC and 2-oxoglutarate dehydrogenase activities [6]: prevented reduction
incorporation of 13C derived from 13C-glucose in TCA cycle intermediates [6]: partially corrected the reduced incorporation
